Literature values in US8440723B2, “Metformin salts of salicylic acid and its congeners” (priority 2011, dated 2013).
Values after ≈ are worked out from the molar mass of the structure shown.

Tests used:
[1] = The Merck Index, Eleventh Edition
[2] = system: patients with type 2 diabetes

Compound	volume of water in which 1 g is soluble ([1]; 1 g of substance) [mL]	water solubility [1] [µg/mL]	solubility in water (in words) [1]	effect on blood glucose, HbA1c, triglycerides, free fatty acid and C-reactive protein [2]
O=C(O)c1ccccc1O [salicylic acid]	460	2170 (≈ 15.7 mM)		
O=C(Oc1ccccc1C(=O)O)c1ccccc1O [salsalate, 2-(2-hydroxybenzoyl)oxybenzoic acid]			practically insoluble in water	lowers blood glucose, HbA1c levels, triglycerides, free fatty acid and C-reactive protein
